According to patent EP4678638A1, “NEW E3 UBIQUITIN LIGASE LIGAND, PROTEIN DEGRADATION AGENT AND USE THEREOF” (priority 2023, dated 2024):

What was measured:
H1975 = assay: CCK-8 proliferation, NCI-H1975 (H1975); format: cell-based, Human; details: Homo sapiens, NCI-H1975; CCK-8; 96 hours; read-out: Inhibitory activity (IC50) on tumor cell proliferation, H1975
Experimental: The tumor cells used herein were cultured in a cell culture medium listed in table A1 at 37°C in an incubator with 5% CO2. Prior to experimentation, all cell lines used were correctly identified by STR profiling, and tested negative for mycoplasma contamination using a mycoplasma detection kit through routine screenings. Table A1. Tumor cells and cell culture medium used in the present disclosure
IC50 values of the compounds of the present disclosure (including the compounds in Table 1, and compounds of examples) were measured using the Meilun Cell Counting Kit-8 kit from Dalian Meilun Biotech Co., Ltd. Assay details are as follows: tumor cells were seeded in a 96-well plate at a density listed in Table A2. After 24h, 100 µL of the inoculated cells were treated with 0.5µL of the compounds of the present disclosure (including the compounds in Tables 1 and 2, and compounds of examples) at 10 different successively decreasing concentrations (starting at the highest concentration of 10µM; 5-fold serial dilutions). After the cells were treated with the compounds of the present disclosure for a period of time, the cell viability detection reagent was added to the culture medium for cell viability assessment according to the instructions provided with the CCK-8 kit. […] The growth inhibition of the compounds of the present disclosure on cells was plotted by Prism Graphpad software, and the IC50 values of the compounds of the present disclosure were calculated therefrom. […] Seeding protocol and treatment time for tumor cells

[1] = molecular target: T1, human Cereblon WT GST-tagged protein (Homo sapiens, UniProt Q96SW2); assay: CRBN binding, HTRF (CEREBLON BINDING kit); details: Table II-2, CRBN binding screening, HTRF; for inhibition at 0.5 µM: read-out: Inhibition rate (%) at 0.5µM; for inhibition at 2 µM: read-out: Inhibition rate (%) at 2 µM
T1 construct: purchased CISBIO 64BDCRBNPEH
T1 sequence (Q96SW2 whole entry): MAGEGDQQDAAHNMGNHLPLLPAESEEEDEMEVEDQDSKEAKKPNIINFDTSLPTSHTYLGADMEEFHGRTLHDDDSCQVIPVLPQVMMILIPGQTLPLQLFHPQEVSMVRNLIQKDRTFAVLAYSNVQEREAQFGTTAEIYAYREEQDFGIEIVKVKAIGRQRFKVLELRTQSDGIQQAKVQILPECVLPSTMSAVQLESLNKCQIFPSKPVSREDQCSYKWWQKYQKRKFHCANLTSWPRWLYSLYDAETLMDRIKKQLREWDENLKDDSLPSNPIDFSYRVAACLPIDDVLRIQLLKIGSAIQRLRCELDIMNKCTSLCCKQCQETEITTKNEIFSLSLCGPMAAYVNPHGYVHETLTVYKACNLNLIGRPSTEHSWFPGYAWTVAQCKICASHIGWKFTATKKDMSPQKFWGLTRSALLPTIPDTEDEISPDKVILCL
Summary of the method: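 Competitive HTRF: GST-tagged human WT Cereblon mixed with compound, Thalidomide-Re tracer and GST Eu antibody, incubated 3 h at room temperature. Signals read at 620 and 665 nm.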

Row | Structure (SMILES) | IC50 (H1975) | inhibition at 0.5 µM [1] | inhibition at 2 µM [1]
1 | CN(Cc1ccc(N2CCC(=O)NC2=O)cc1)C1CCN(c2ccc(-c3cc(F)c4c(c3)C(=O)N(C(C(=O)Nc3nccs3)c3ncn5c3CCC5)C4)cc2)CC1 (stereo not shown) [GT-05219, 2-(6,7-dihydro-5H-pyrrolo[1,2-c]imidazol-1-yl)-2-(6-(4-(4-((4-(2,4-dioxotetrahydropyrimidin-1(2H)-yl)benzyl)(methyl)amino)piperidin-1-yl)phenyl)-4-fluoro-1-oxoisoindolin-2-yl)-N-(thiazol-2-yl)acetamide] | 0.001 to 0.01 µM | – | –
2 | O=C1CCC(c2cnc(F)c(CN3CCN(c4ccc(-c5cc(F)c6c(c5)C(=O)N(C(C(=O)Nc5nccs5)c5ncn7c5CCC7)C6)cc4)CC3)c2)C(=O)N1 (stereo not shown) [GT-07490, 2-(6,7-dihydro-5H-pyrrolo[1,2-c]imidazol-1-yl)-2-(6-(4-(4-((5-(2,6-dioxopiperidin-3-yl)-2-fluoropyridin-3-yl)methyl)piperazin-1-yl)phenyl)-4-fluoro-1-oxoisoindolin-2-yl)-N-(thiazol-2-yl)acetamide] | 0.001 to 0.01 µM | – | –
3 | O=C1CCN(c2cncc(CN3CCN(c4ccc(-c5cc(F)c6c(c5)C(=O)N(C(C(=O)Nc5nccs5)c5ncn7c5CCC7)C6)cc4)CC3)c2)C(=O)N1 (stereo not shown) [GT-07380, 2-(6,7-dihydro-5H-pyrrolo[1,2-c]imidazol-1-yl)-2-(6-(4-(4-((5-(2,4-dioxotetrahydropyrimidin-1(2H)-yl)pyridin-3-yl)methyl)piperazin-1-yl)phenyl)-4-fluoro-1-oxoisoindolin-2-yl)-N-(thiazol-2-yl)acetamide] | 0.001 to 0.01 µM | – | –
4 | O=C1CCN(c2ccc(CN3C[C@H]4C[C@@H]3CN4c3ccc(-c4cc(F)c5c(c4)C(=O)N(C(C(=O)Nc4nccs4)c4ncn6c4CCC6)C5)cc3)cn2)C(=O)N1 (stereo partly drawn) [GT-06191, 2-(6,7-dihydro-5H-pyrrolo[1,2-c]imidazol-1-yl)-2-(6-(4-((1R,4R)-5-((6-(2,4-dioxotetrahydropyrimidin-1(2H)-yl)pyridin-3-yl)methyl)-2,5-diazabicyclo[2.2.1]heptan-2-yl)phenyl)-4-fluoro-1-oxoisoindolin-2-yl)-N-(thiazol-2-yl)acetamide] | 0.001 to 0.01 µM | – | –
5 | O=C1CCN(c2ccc(CN3CCC(N4CCN(c5ccc(-c6cc(F)c7c(c6)C(=O)N(C(C(=O)Nc6nccs6)c6ncn8c6CCC8)C7)cc5)CC4)CC3)cc2)C(=O)N1 (stereo not shown) [GT-06327, 2-(6,7-dihydro-5H-pyrrolo[1,2-c]imidazol-1-yl)-2-(6-(4-(4-(1-(4-(2,4-dioxotetrahydropyrimidin-1(2H)-yl)benzyl)piperidin-4-yl)piperazin-1-yl)phenyl)-4-fluoro-1-oxoisoindolin-2-yl)-N-(thiazol-2-yl)acetamide] | 0.001 to 0.01 µM | – | –
6 | CN(Cc1cc(N2CCC(=O)NC2=O)ncc1F)C1CCN(c2ccc(-c3cc(F)c4c(c3)C(=O)N(C(C(=O)Nc3nccs3)c3ncn5c3CCC5)C4)cc2)CC1 (stereo not shown) [GT-07382, 2-(6,7-dihydro-5H-pyrrolo[1,2-c]imidazol-1-yl)-2-(6-(4-(4-(((2-(2,4-dioxotetrahydropyrimidin-1(2H)-yl)-5-fluoropyridin-4-yl)methyl)(methyl)amino)piperidin-1-yl)phenyl)-4-fluoro-1-oxoisoindolin-2-yl)-N-(thiazol-2-yl)acetamide] | 0.01 to 0.05 µM | – | –
7 | CN(Cc1cccc(N2CCC(=O)NC2=O)c1)C1CCN(c2ccc(-c3cc(F)c4c(c3)C(=O)N(C(C(=O)Nc3nccs3)c3ncn5c3CCC5)C4)cc2)CC1 (stereo not shown) [GT-05281, 2-(6,7-dihydro-5H-pyrrolo[1,2-c]imidazol-1-yl)-2-(6-(4-(4-((3-(2,4-dioxotetrahydropyrimidin-1(2H)-yl)benzyl)(methyl)amino)piperidin-1-yl)phenyl)-4-fluoro-1-oxoisoindolin-2-yl)-N-(thiazol-2-yl)acetamide] | 0.001 to 0.01 µM | – | –
8 | O=C1CCC(Nc2ncccc2CN2CCN(c3ccc(-c4cc(F)c5c(c4)C(=O)N(C(C(=O)Nc4nccs4)c4ncn6c4CCC6)C5)cc3)CC2)C(=O)N1 (stereo not shown) [GT-07489, 2-(6,7-dihydro-5H-pyrrolo[1,2-c]imidazol-1-yl)-2-(6-(4-(4-((2-((2,6-dioxopiperidin-3-yl)amino)pyridin-3-yl)methyl)piperazin-1-yl)phenyl)-4-fluoro-1-oxoisoindolin-2-yl)-N-(thiazol-2-yl)acetamide] | 0.01 to 0.05 µM | – | –
9 | O=C1CCN(c2cc(CN3CCN(c4ccc(-c5cc(F)c6c(c5)C(=O)N(C(C(=O)Nc5nccs5)c5ncn7c5CCC7)C6)cc4)CC3)ccn2)C(=O)N1 (stereo not shown) [GT-07379, 2-(6,7-dihydro-5H-pyrrolo[1,2-c]imidazol-1-yl)-2-(6-(4-(4-((2-(2,4-dioxotetrahydropyrimidin-1(2H)-yl)pyridin-4-yl)methyl)piperazin-1-yl)phenyl)-4-fluoro-1-oxoisoindolin-2-yl)-N-(thiazol-2-yl)acetamide] | 0.001 to 0.01 µM | – | –
10 | O=C1CCN(c2cc(CN3C[C@H]4C[C@@H]3CN4c3ccc(-c4cc(F)c5c(c4)C(=O)N(C(C(=O)Nc4nccs4)c4ncn6c4CCC6)C5)cc3)ccn2)C(=O)N1 (stereo partly drawn) [GT-07387, 2-(6,7-dihydro-5H-pyrrolo[1,2-c]imidazol-1-yl)-2-(6-(4-((1R,4R)-5-((2-(2,4-dioxotetrahydropyrimidin-1(2H)-yl)pyridin-4-yl)methyl)-2,5-diazabicyclo[2.2.1]heptan-2-yl)phenyl)-4-fluoro-1-oxoisoindolin-2-yl)-N-(thiazol-2-yl)acetamide] | 0.001 to 0.01 µM | – | –
11 | O=C1CCC(c2cc(CN3CCN(c4ccc(-c5cc(F)c6c(c5)C(=O)N(C(C(=O)Nc5nccs5)c5ncn7c5CCC7)C6)cc4)CC3)ccn2)C(=O)N1 (stereo not shown) [GT-07392, 2-(6,7-dihydro-5H-pyrrolo[1,2-c]imidazol-1-yl)-2-(6-(4-(4-((2-(2,6-dioxopiperidin-3-yl)pyridin-4-yl)methyl)piperazin-1-yl)phenyl)-4-fluoro-1-oxoisoindolin-2-yl)-N-(thiazol-2-yl)acetamide] | 0.001 to 0.01 µM | – | –
12 | CC(=O)c1c(C)c2cnc(Nc3ccc(N4CCN(Cc5cncc(C6CCC(=O)NC6=O)c5)CC4)cn3)nc2n(C2CCCC2)c1=O (stereo not shown) [GT-07485, 3-(5-((4-(6-((6-acetyl-8-cyclopentyl-5-methyl-7-oxo-7,8-dihydropyrido[2,3-d]pyrimidin-2-yl)amino)pyridin-3-yl)piperazin-1-yl)methyl)pyridin-3-yl)piperidine-2,6-dione] | – | 53 to 60% | 80 to 100%
13 | CC(C)(O)c1cc2nn(C3CCN(Cc4cncc(N5CCC(=O)NC5=O)c4)CC3)cc2cc1NC(=O)c1cccc(C(F)(F)F)n1 [GT-07540, N-(2-(1-((5-(2,4-dioxotetrahydropyrimidin-1(2H)-yl)pyridin-3-yl)methyl)piperidin-4-yl)-6-(2-hydroxypropan-2-yl)-2H-indazol-5-yl)-6-(trifluoromethyl)picolinamide] | – | 30 to 40% | 53 to 60%
14 | CC(C)(O)c1cc2nc(C3CCN(Cc4cncc(C5CCC(=O)NC5=O)c4)CC3)oc2cc1NC(=O)c1cccc(C(F)(F)F)n1 (stereo not shown) [GT-07630, N-(2-(1-((5-(2,6-dioxopiperidin-3-yl)pyridin-3-yl)methyl)piperidin-4-yl)-5-(2-hydroxypropan-2-yl)benzo[d]oxazol-6-yl)-6-(trifluoromethyl)picolinamide] | – | 20 to 30% | 60 to 80%
15 | CNC(=O)c1ccccc1Nc1cc(Nc2cc(C)c(C3CCN(Cc4ccc(N5CCC(=O)NC5=O)cc4)CC3)cc2OC(C)C)ncc1C(F)(F)F [GT-07667, 2-((2-((4-(1-(4-(2,4-dioxotetrahydropyrimidin-1(2H)-yl)benzyl)piperidin-4-yl)-2-isopropoxy-5-methylphenyl)amino)-5-(trifluoromethyl)pyridin-4-yl)amino)-N-methylbenzamide] | – | 20 to 30% | 53 to 60%
